Series [1] deals with endogenous WNK1 in 293 cells. Type of series: cell-based. The following applies: for activation of WNK1 by other stimuli, in words: serum-deprived 16 h, stimulus 30 min.
Series [2] relates to OSR1[D164A] phosphorylation by WNK1[1–661]. Description: Activity of WNK1[1–661] forms expressed in E. coli. The format is biochemical. The following applies: mean of duplicate samples.
The next series concerns p38 and JNK isoforms. The settings on record: high concentrations; ref Kuma et al., 2005; cited from earlier work.
In series [3] the target is OSR1 CCT domain (residues 429–527) (Homo sapiens, UniProt O95747). As to the kind of experiment: Surface plasmon resonance. The following applies: BiaCore, OSR1 CCT domain 6.8–340 nM; vs nonphosphorylated peptide. The format is binding. On the technique in general: SPR reads the build-up and loss of mass on a sensor chip optically.
The subject of series [4] is endogenous WNK1 in 293 cells. Type of series: cell-based, human. The following applies: 0.5 M sorbitol.
Series [5] has as its system SPAK and OSR1 T-loop and S-motif. Description: SPAK/OSR1 T-loop and S-motif phosphorylation. Type of series: cell-based. The settings on record: sorbitol, HeLa and 293 cells.
The test system of the next series is p38 and JNK. As to the kind of experiment: p38 / JNK activation in 293 cells. The settings on record: 30 min. Type of series: cell-based.
The next series relates to ERK1/2. Description: ERK activation in 293 cells. The format is cell-based.
Series [6] has as its system WNK1 localization in 293 cells. As to the kind of experiment: WNK1 localization in 293 cells by confocal and live-cell imaging, FRAP. Type of series: cell-based. The settings on record: for time to redistribution of GFP-WNK1 to intracellular vesicles / time to reversal after removal (WNK1 diffuse in cytosol): live 293 cells; for time to redistribution of GFP-WNK1 to intracellular vesicles: 0.2 M sorbitol or 0.2 M NaCl; for time to reversal after removal (WNK1 diffuse in cytosol): removal of sorbitol or NaCl; for FRAP: time to redistribution to photobleached area: sorbitol- or NaCl-treated 293 cells.

For series [7], the system named is endogenous SPAK and OSR1 in 293 cells. Description: SPAK/OSR1 activity in 293 cells. The following applies: sorbitol, CATCHtide (Fig. S1). The format is cell-based.
Series [8] relates to endogenous SPAK and OSR1 in HeLa cells. As to the kind of experiment: SPAK/OSR1 activity in HeLa cells. The format is cell-based. The following applies: 0.5 M sorbitol, 30 min, CATCHtide.
Series [9] has as its system WNK1 Ser382. Description: WNK1 Ser382 phosphorylation, forms expressed in 293 cells. The following applies: 0.5 M sorbitol, 30 min, phospho-Ser382 antibody. Type of series: cell-based.
The test system of series [10] is OSR1[D164A] phosphorylation by WNK1[1–667]. Description: Activity of GST-WNK1[1–667] forms expressed in 293 cells. Type of series: cell-based.
Series [11] relates to WNK1 Ser382. As to the kind of experiment: WNK1 Ser382 phosphorylation, forms expressed in E. coli. The format is biochemical.
The target in series [12] is OSR1 CCT domain (residues 429-527) (human, UniProt O95747 429-527). As to the kind of experiment: SPR.
The mark [13] stands for this setting: U0126, 0.5 M sorbitol, not depicted.
Where [14] appears, read: PD184352 2 μM 30 min preincubation, 0.5 M sorbitol 30 min.

Here are results for 23 molecules from publication PMC2063630 (The Journal of Cell Biology, 2007).

Like-named read-outs stand apart in the source and are kept apart here. Square brackets hold non-standard residues; d marks the D form. Ends that are not written are not given here. * marks the point of attachment. Biotin = O=C1N[C@H]2[C@H](CS[C@H]2CCCCC(=O)*)N1; pS = N[C@@H](COP(=O)(O)O)C(=O)O Where only a bound is given, the exact number is not on record here.

Broadly, the Kd is the concentration at which binding is half-saturated. The low end stands for tighter binding, the high end for weaker binding.

Sequence of OSR1 CCT domain (residues 429–527) (O95747 429-527): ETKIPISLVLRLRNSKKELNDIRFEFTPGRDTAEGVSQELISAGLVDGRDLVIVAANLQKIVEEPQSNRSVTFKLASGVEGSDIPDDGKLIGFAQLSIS
Sequence of OSR1 CCT domain (residues 429-527) (O95747 429-527): as above

With `CCCCCCCCCCCCCC(=O)O[C@@H]1[C@@H](C)[C@@]2(O)[C@@H](C=C(CO)C[C@]3(O)C(=O)C(C)=C[C@@H]23)[C@@H]2C(C)(C)[C@]12OC(C)=O` [TPA], the “activation of WNK1 by other stimuli, in words” value in series [1] is given as “failed to induce activation of WNK1”.

In [2], “WNK1[S382A, 1–661]: mutant expressed in E. coli” had a specific activity of 0.15 U/mg.

As for `C[S+]([O-])c1ccc(-c2nc(-c3ccncc3)c(-c3ccc(F)cc3)[nH]2)cc1` (centres unmarked) [SB203580], in series [1], the “effect on WNK1 activation by sorbitol” value is “failed to prevent activation of WNK1 by sorbitol”.

For `CCCCNc1cc(C(=O)O)cc(S(N)(=O)=O)c1Oc1ccccc1` [bumetanide], the “activation of WNK1 by other stimuli, in words” value in series [1] was “failed to induce activation of WNK1”.

Turning to `Cc1ccc(-n2nc(C(C)(C)C)cc2NC(=O)Nc2ccc(OCCN3CCOCC3)c3ccccc23)cc1` [BIRB0796], the “inhibition of p38 and JNK isoforms, in words” value with p38 and JNK isoforms is “inhibit all p38 and JNK isoforms”.

Regarding `COC[C@@H]([C@H](O)[C@H](O)C(=O)NCC[C@H](C)c1nc(/C=C/C[C@@H]2O[C@]3(C[C@@H](O)[C@@H]2C)O[C@H]([C@H](C[C@H](O)[C@H](C)[C@H](O)[C@H](C)/C=C(C)/C(C)=C/C=C/C(C)=C\C#N)OC)[C@H](OP(=O)(O)O)C3(C)C)co1)N(C)C` [calyculin A], the “activation of WNK1 by other stimuli, in words” value in series [1] was “failed to induce activation of WNK1”.

In the case of `OO` [H2O2], the “activation of WNK1 by other stimuli, in words” value in [1] is reported as “failed to induce activation of WNK1”.

“WNK1[S382E, 1–661]: mutant expressed in E. coli” had a specific activity in [2] of 0.66 U/mg.

As to “AGRRFIVpSPVPESRL (AGRRFIV[pS]PVPESRL; also: biotin label, attachment end not given here) [phosphorylated Ser1261 peptide]”, the “binding to OSR1 CCT domain, in words” value in series [3] was “bound to OSR1 with a markedly lower affinity”.

As for `OC[C@@H](O)[C@@H](O)[C@H](O)[C@@H](O)CO` [sorbitol], in series [4] (32P-labelled 293 cells, 20 min), the “WNK1 phosphorylation sites stimulated, in words” value was “Phosphorylation of two sites, Ser1261 and Ser 2372, was stimulated”. Besides, the “WNK1 phosphorylation sites enhanced, in words” value in series [4] (unlabeled 293 cells, LC-MS, 30 min) is “five residues (Ser15, Ser167, Ser382, Ser1261, and Thr1848) whose phosphorylation was markedly enhanced”. Moreover, the “SPAK/OSR1 T-loop and S-motif phosphorylation, in words” value in [5] is “markedly stimulated the phosphorylation of endogenously expressed SPAK and OSR1 at both the T-loop and S-motif”. In addition, in the series on p38 and JNK (0.5 M sorbitol), the “p38 and JNK stimulation, in words” value is “stimulated the extracellular signal–regulated kinase (ERK) 1/2, p38, and JNK protein kinases”. Further, in the series with ERK1/2 (0.5 M sorbitol, 30 min), the “ERK1/2 stimulation, in words” value is recorded as “stimulated the extracellular signal–regulated kinase (ERK) 1/2”. Moreover, the “WNK1 localization, in words” value in series [6] (0.2 M sorbitol, 1 min) is given as “WNK1 was strikingly observed on discrete intracellular structures”. Further, in [6], the “time to redistribution of GFP-WNK1 to intracellular vesicles” value is at most 0.5 min, the “time to reversal after removal (WNK1 diffuse in cytosol)” value is on record as at most 2 min and the “FRAP: time to redistribution to photobleached area” value was at most 2 min. Further, in [7], the “fold increase of SPAK/OSR1 activity” value is “approximately fourfold”. In addition, in series [8], the “fold increase of SPAK/OSR1 activity” value is “approximately fivefold”. For the same molecule, the “fold increase of WNK1 activity” value in series [1] (0.1–1.0 M sorbitol, 30 min, dose-dependent) is on record as “fivefold”. Moreover, in [1] (0.5 M sorbitol), the “duration of sustained WNK1 activation” value was found to be 80 min, the “time at which WNK1 activation was detected” value is at most 0.5 min and the “time to maximal WNK1 activation” value was in the range of 1 to 2 min. Further, in series [1] (0.5 M sorbitol, 30 min, vs nontreated cells, duplicate samples), the “fold increase of WNK1 activity (OSR1 phosphorylation rate)” value is recorded as “approximately threefold”.

With “WNK1[1–667]: N-terminal fragment of WNK1, GST fusion, expressed in 293 cells”, the “Ser382 phosphorylation induced by sorbitol, in words” value in the series on WNK1 Ser382 [9] was “Sorbitol markedly increased recognition of WNK1[1–667] by a phospho-Ser382 antibody”. In addition, the specific activity was about 0.13 U/mg in series [10] (isolated from sorbitol-stimulated 293 cells) and 0.13 U/mg in series [10] (wild-type, isolated from untreated 293 cells).

In the case of pervanadate, the “activation of WNK1 by other stimuli, in words” value in series [1] is “failed to induce activation of WNK1”.

Regarding `COc1ccc(C[C@H]2NC[C@H](O)[C@H]2OC(C)=O)cc1` [anisomycin], the “p38 and JNK stimulation, in words” value in the series on p38 and JNK (anisomycin 10 μg/ml) is “potently stimulates p38 and JNK”. The “activation of WNK1 by anisomycin, in words” value in series [1] (anisomycin 10 μg/ml, 30 min) was “failed to activate WNK1”.

Regarding “WNK1[1–661]: wild-type WNK1 fragment expressed in E. coli”, the “Ser382 phosphorylation after MgATP, in words” value in the series on WNK1 Ser382 [11] (0.1 mM ATP, 10 mM Mg, 1 h) is listed as “did not further increase phosphorylation of Ser382”. In addition, the “Ser382 phosphorylation, in words” value in the series with WNK1 Ser382 [11] (expressed in E. coli) is “heavily phosphorylated at Ser382”. Also, the specific activity in series [2] turned out to be 5.2 U/mg.

Regarding `N#CC(=C(/N)Sc1ccccc1N)/C(C#N)=C(/N)Sc1ccccc1N` [U0126], the “effect on ERK activation by sorbitol” value in the series with ERK1/2 (setting [13]) is on record as “abolished ERK activation by sorbitol”. Also, in [1] (setting [13]), the “effect on WNK1 activation by sorbitol” value is listed as “without affecting WNK1 activation”.

Take `[Cl-].[Na+]` [NaCl]: in [6], the “time to redistribution of GFP-WNK1 to intracellular vesicles” value is on record as at most 0.5 min, the “time to reversal after removal (WNK1 diffuse in cytosol)” value was at most 2 min and the “FRAP: time to redistribution to photobleached area” value is listed as at most 2 min. Also, in [1] (NaCl, 30 min), the “concentration at which WNK1 activation was detectable” value was found to be 50 mM and the “concentration for maximal WNK1 activation” value is 0.15 M.

With `O=C(NOCC1CC1)c1ccc(F)c(F)c1Nc1ccc(I)cc1Cl` [PD184352], the “effect on ERK activation by sorbitol” value with ERK1/2 (setting [14]) is “abolished ERK activation by sorbitol”. Further, in [1] (setting [14]), the “effect on WNK1 activation by sorbitol” value is reported as “without affecting WNK1 activation”.

On to TNFα, for which, in series [1], the “activation of WNK1 by other stimuli, in words” value is listed as “failed to induce activation of WNK1”.

As for “WNK1[S382E, 1–667]: Ser382 to Glu mutant of GST-WNK1[1–667]”, the “effect of sorbitol on activity of mutant, in words” value in series [10] (0.5 M sorbitol, 30 min) was “not enhanced by sorbitol stimulation”. Moreover, the “basal activity, fold over wild-type WNK1[1–667] from untreated cells” value in [10] (untreated 293 cells) is given as “over eightfold”.

For IGF-1: IGF-1, the “activation of WNK1 by other stimuli, in words” value in series [1] is reported as “failed to induce activation of WNK1”.

With `[Cl-].[K+]` [KCl], the “fold increase of WNK1 activity” value in series [1] (0.5 M KCl, 30 min) is listed as “threefold”.

In series [2], “WNK1[S382D, 1–661]: mutant expressed in E. coli” had a specific activity of 0.26 U/mg.

B1: biotinylated peptide encompassing Ser1261 of WNK1 (biotin-AGRRFIVSPVPESRL) (peptide)
peptide: Biotin-AGRRFIVSPVPESRL
For the molecule B1, the Kd in series [12] is about 40 nM.
